For the assay, the system named is NLRP3 inflammasome pathway. In words: NLRP3 inflammasome pathway activation assay (IL-1β release, HTRF). Type of assay: cell-based, Human. The settings on record: for IC50: IL-1β release, PMA-differentiated, LPS-primed cells; for inhibition of IL-1 beta release compared to the equivalent compounds in which Z1=C and Z2=N: human monocyte-like cells, MSU or Nigericin as activators, 8 vs 13, 11 vs 12. The procedure:
The following assays were used to determine the inhibitory activity of test compounds on the NLRP3 inflammasome pathway using common stimuli Nigericin (Invivogen) or monosodium urate crystals (MSU) (Invivogen).
Human monocyte-like cells were seeded at 25000 per well in a 384-well plate and were differentiated overnight into macrophages with 10 ng/ml PMA (Phorbol Myristate Acetate). The following day, medium containing 10 ng/ml LPS (Lipopolysaccharide) was added.
For IL-1β quantification, supernatants were analyzed using HTRF kit according to the manufacturer's instructions (Cisbio 62HIL1BPEH), Briefly, in a 384-well ProxiPlate™ microplate, 8 μl of sample was mixed, with 5 μl of Anti-IL1β Cryptate antibody (40×) and Anti-IL1β XL antibody (40×). Then, incubated overnight at RT. Reading was done using an EnVision Reader (PerkinElmer).
In general terms: Time-resolved FRET reads energy transfer from a long-lived donor to a nearby acceptor.

Where [1] appears, read: Homo sapiens, stimulation with MSU 200 μg/ml for 3 h, read-out: IC50 Human monocyte-like cells MSU.
Setting [2] is: Homo sapiens, stimulation with Nigericin 3.75 μM for 3 h, read-out: IC50 Human monocyte-like cells Nigericin.
[3] abbreviates: stimulation with MSU 200 μg/ml for 3 h, read-out: IC50 Human monocyte-like cells MSU.
[4] abbreviates: stimulation with Nigericin 3.75 μM for 3 h, read-out: IC50 Human monocyte-like cells Nigericin.

Where two headings read alike, the source gives them in different places. A value given as a limit tells only on which side of the number the result lay.

By IC50 is commonly meant the concentration at which inhibition is half-maximal. For `CN1CCC[C@@H](Nc2nnc(-c3ccc(OC(F)F)cc3)n3cccc23)C1` [Example 3, (R)-4-(4-(difluoromethoxy)phenyl)-N-(1-methylpiperidin-3-yl)pyrrolo[1,2-d][1,2,4]triazin-1-amine], under setting [1], the concentration for half-maximal inhibition (IC50) lay in the range of 0.005 to 0.02 µM. Regarding `C[C@]1(O)C[C@@H](Nc2nnc(-c3ccc(C(F)(F)F)cc3O)c3cccn23)C1` [Example 11, 2-(4-(((1s,3s)-3-hydroxy-3-methylcyclobutyl)-amino)pyrrolo[1,2-d][1,2,4]triazin-1-yl)-5-(trifluoromethyl)phenol], the “inhibition of IL-1 beta release compared to the equivalent compounds in which Z1=C and Z2=N” value was “significantly increased inhibition”. Moreover, the IC50 under setting [1] was below 0.005 µM. Besides, the IC50 under setting [2] was 0.005 to 0.02 µM.

In the case of `CCN1CCC[C@@H](Nc2nnc(-c3ccc(Cl)cc3O)n3ccnc23)C1` [Example 15], the IC50 under setting [1] is below 0.005 µM. The same measure, in the same setting: under `CN1CCC[C@@H](Nc2nnc(-c3ccc(Cl)cc3)n3ccnc23)C1` [Example 6, 5-(4-Chlorophenyl)-N-[(3R)-1-methyl-3-piperidyl]imidazo[1,2-d][1,2,4]triazin-8-amine] stands 0.02 to 0.1 µM; under `CN1CC[C@@H](Nc2nnc(-c3ccc(Cl)cc3O)n3ccnc23)C1` [Example 9], 0.02 to 0.1 µM. For `CN1CCC[C@@H](Nc2nnc(-c3ccc(C(F)(F)F)cc3O)n3nccc23)C1` [Example 2, (R)-2-(4-((1-methylpiperidin-3-yl)amino)pyrazolo[1,5-d][1,2,4]triazin-7-yl)-5-(trifluoromethyl)phenol], the IC50 under setting [1] is 0.005 to 0.02 µM. For the compound `C[C@]1(O)C[C@@H](Nc2nnc(-c3ccc(C(F)(F)F)cc3O)n3cccc23)C1` [Example 12, 2-(1-(((1s,3s)-3-hydroxy-3-methylcyclobutyl)amino)pyrrolo[1,2-d][1,2,4]triazin-4-yl)-5-(trifluoromethyl)phenol], the IC50 runs as follows: under setting [3], 0.005 to 0.02 µM; under setting [4], 0.02 to 0.1 µM. For the compound `CC1(O)CC(Oc2nnc(-c3ccc(C(F)(F)F)cc3O)n3cccc23)C1` (centres unmarked) [Example 8, 2-(1-((1s,3s)-3-hydroxy-3-methylcyclobutoxy)pyrrolo[1,2-d][1,2,4]triazin-4-yl)-5-(trifluoromethyl)phenol], the “inhibition of IL-1 beta release compared to the equivalent compounds in which Z1=C and Z2=N” value is given as “significantly increased inhibition”. Further, the IC50 under setting [1] was below 0.005 µM. Further, the IC50 under setting [2] is 0.005 to 0.02 µM. In the case of `CN1CCC[C@@H](Nc2nnc(-c3ccc(OC(F)(F)F)cc3)n3cccc23)C1` [Example 4, (R)-N-(1-methylpiperidin-3-yl)-4-(4-(trifluoromethoxy)phenyl)pyrrolo[1,2-d][1,2,4]triazin-1-amine], the IC50 is, setting by setting: under setting [1], 0.02 to 0.1 µM; under setting [2], 0.02 to 0.1 µM. Take `CN1CCC[C@@H](Nc2nnc(-c3ccc(C(F)(F)F)cc3O)n3cccc23)C1` [Example 1, (R)-2-(1-((1-methylpiperidin-3-yl)amino)pyrrolo[1,2-d][1,2,4]triazin-4-yl)-5-(trifluoromethyl)phenol]: the IC50 by setting is: under setting [1], below 0.005 µM; under setting [2], below 0.005 µM. Take `C[C@]1(O)C[C@@H](Nc2nnc(-c3ccc(C(F)(F)F)cc3O)n3ccc(F)c23)C1` [Example 10, 2-(8-Fluoro-1-(((1s,3s)-3-hydroxy-3-methylcyclobutyl)amino)pyrrolo[1,2-d][1,2,4]triazin-4-yl)-5-(trifluoromethyl)phenol]: the IC50 under setting [1] is below 0.005 µM.

For the compound `C[C@]1(O)C[C@@H](Oc2nnc(-c3ccc(C(F)(F)F)cc3O)c3cccn23)C1` [Example 13, 2-(4-((1s,3s)-3-Hydroxy-3-methylcyclobutoxy)pyrrolo[1,2-d][1,2,4]triazin-1-yl)-5-(trifluoromethyl)phenol], the IC50 is 0.005 to 0.02 µM under setting [3] and 0.02 to 0.1 µM under setting [4].

Source of the values: patent US20240034735A1, “NOVEL COMPOUNDS” (AC Immune SA, priority 2022, published 2024).
